Reference: patent publication US11166958B2, “4-pyrazin-2-ylmethyl-morpholine derivatives and the use thereof as medicament” (Boehringer Ingelheim International GmbH, priority 2018, dated 2021)

How the values were obtained:
NMDA NR1/NR2B receptor = NMDA NR1/NR2B receptor (Homo sapiens (Human), UniProt Q13224); assay: In vitro NMDA NR1/NR2B cell assay (FLIPR, intracellular calcium induced by glycine/glutamate); type: cell-based; settings: HEK293 NR1/NR2B, 20 μM glycine / 1 μM glutamate, read-out: In vitro NR2B affinity, IC50
Procedure: A human HEK293 cell line with tetracyclin-inducible expression of NMDA NR1/NR2B receptor was used as a test system for compound efficacy and potency. The cell line was purchased from ChanTest, Catalog #CT6121. Compound activity was determined by measuring the effect of compounds on intracellular calcium concentration induced by glycine/glutamate agonism in a FLIPRtetra system (Molecular Devices).
The cells were obtained as frozen cells in cryo-vials and stored until use at −150° C. Cells were grown in culture medium (DMEM/F12, 10% FBS, 5 μg/mL Blasticidin, 150 μg/mL Zeozin, 500 μg/mL Geneticin). […] For sub-culturing the cells were detached from flasks by Versene. For the assay, cells were detached, washed twice with induction medium (DMEM/F12 without glutamine, 10% FBS, 2 μg/mL Tetracycline, 2 mM Ketamine) and seeded to 384 well pure coat amine plates (Becton Dickinson, 50000 cells per well in 50 μl) 48 h prior to assay in induction medium.
The test compounds were dissolved in 100% DMSO at a concentration of 10 mM and in a first step diluted in DMSO to a concentration of 5 mM, followed by serial dilution steps in 100% DMSO. Dilution factor and number of dilution steps may vary according to needs. Typically 8 different concentrations by 1:5 dilutions were prepared in duplicate, further intermediate dilutions (1:37.5) of the substances were carried out with aqueous assay buffer (137 mM NaCl, 4 mM KCl, 1.8 mM CaCl2), 10 mM HEPES, 10 mM Glucose, pH 7.4) resulting in a compound concentration 3 times above the final test concentration and DMSO at 2.7% resulting in 0.9% final DMSO concentration in the assay.
At the assay day cells were washed 3× with assay buffer (as described above), 10 μL buffer remained in the wells after washing. 10 μL Ca kit loading buffer (AAT Bioquest; prepared from the kit containing the following components: Component A: Fluo-8 NW dissolved in 200 μL DMSO and 20 μl of this solution are mixed with 10 ml buffer prepared out of component B and C, Component B: 10× Pluronic® F127 Plus diluted 1:10 in component C, Component C: HHBS (Hanks with 20 mM Hepes) was added to the cells and the plates were incubated with lid for 60 minutes at room temperature. 20 μl assay buffer containing 60 μM glycine (20 μM final) and 3 μM glutamate (1 μM final) was added to column 1-23, column 24 got assay buffer without glycine/glutamate to serve as negative unstimulated control. Fluorescence (indicating the calcium influx as a result of the NR1/NR2B ion channel activation) was read on the FLIPRtetra device for 60 seconds to monitor the glutamate induced effects. After 2 minutes 20 μL of compound dilution prepared as described above or controls (row 1-22) in assay buffer were carefully added to the wells. […] The average of 2 measurements at 5 minutes and 5 min 10 seconds after compound addition is calculated and further used for IC50 calculations. Each assay microtiter compound dilution plate contained wells (in column 23 or 24) with DMSO controls instead of compound as controls for glycine/glutamate induced fluorescence (high controls) and wells with 1 μM of a reference NR2B NAM as low controls (Compound 22; reference: Layton, Mark E et al, ACS Chemical Neuroscience 2011, 2(7), 352-362).
The output file of the reader contains the well number and measured average fluorescence units. For data evaluation and calculation, the measurement of the low control was set as 0% control and the measurement of the high control was set as 100% control. The IC50 values were calculated using the standard 4 parameter logistic regression formula. Calculation: [y=(a−d)/(1+(x/c)^b)+d], a=low value, d=high value; x=conc M; c=IC50 M; b=slope.

Nav1.6 channel = Nav1.6 channel (Homo sapiens (Human), UniProt Q9UQD0); assay: Nav1.6 inhibition, IonWorks Quattro electrophysiology; type: cell-based; settings: for inhibition at 1 µM / inhibition at 5 µM: normalized to vehicle (0%) and maximal inhibition control (100%)
Procedure: IonWorks Quattro electrophysiological platform
The compounds were prepared in DMSO at 300× the final assay concentrations of 1 and 5 μM.
The 300× DMSO stock solutions were transferred into assay plates where 2 μl per well of each 300× stock solution were placed. All assay plates were stored at −80° C. until the day of assay.
On the day of the assay, the appropriate assay plate was thawed at room temperature, centrifuged, and 198 μl of external recording solution was added and mixed thoroughly. This provided a 1:100 dilution. A further 1:3 dilution occurred upon addition to the cells in the IonWorks Quattro electrophysiological platform, giving a 1:300 dilution in total. On each assay plate, at least 8 wells were reserved for vehicle control (0.3% DMSO) and at least 8 wells for each positive control specific to the cell line tested. The positive controls were tested at a maximal blocking and an approximate IC50 concentration. As positive control Lidocaine at concentrations of 30 and 1000 μM was used.
The solutions for recording Nav1.6 currents were as follows:
Amphotericin B was used to obtain electrical access to the cell interior at a final concentration of 200 μg/ml in internal recording solution.
State-dependent inhibition: Sodium channels when held at depolarized potential or long test pulse, the channels open and inactivate and then stay inactivated until the membrane potential is stepped back to hyperpolarized potentials, when the inactivated channels recover from inactivation into closed state.
Cells were held at −120 mV. In order to completely inactivate the sodium channels (pulse 1), the cells were pulsed to +0 mV for 2500 ms and stepped back to −120 mV for 10 ms (to completely recover from inactivation, however channels that had drugs bound to them will not recover from inactivation) before stepping to +0 mV for 20 ms (pulse 2).
Assay Control Results Both the positive and vehicle control data associated with each cell line assayed are shown below as an example. The mean is shown for each positive and negative control as solid symbol with the total number of individual well replicates given next to the solid symbol. In addition, the individual data of each well are shown on the graph as open symbols so that the variation about the mean value can be readily assessed.
Shown below are the assay controls for the Nav1.6 IonWorks Quattro assay.
Tables 3 and 4 show the normalized percentage inhibition of Nav1.6 channel. […] (see also the figure Assay Control Results above).

Chain of Nav1.6 channel (Q9UQD0 whole entry): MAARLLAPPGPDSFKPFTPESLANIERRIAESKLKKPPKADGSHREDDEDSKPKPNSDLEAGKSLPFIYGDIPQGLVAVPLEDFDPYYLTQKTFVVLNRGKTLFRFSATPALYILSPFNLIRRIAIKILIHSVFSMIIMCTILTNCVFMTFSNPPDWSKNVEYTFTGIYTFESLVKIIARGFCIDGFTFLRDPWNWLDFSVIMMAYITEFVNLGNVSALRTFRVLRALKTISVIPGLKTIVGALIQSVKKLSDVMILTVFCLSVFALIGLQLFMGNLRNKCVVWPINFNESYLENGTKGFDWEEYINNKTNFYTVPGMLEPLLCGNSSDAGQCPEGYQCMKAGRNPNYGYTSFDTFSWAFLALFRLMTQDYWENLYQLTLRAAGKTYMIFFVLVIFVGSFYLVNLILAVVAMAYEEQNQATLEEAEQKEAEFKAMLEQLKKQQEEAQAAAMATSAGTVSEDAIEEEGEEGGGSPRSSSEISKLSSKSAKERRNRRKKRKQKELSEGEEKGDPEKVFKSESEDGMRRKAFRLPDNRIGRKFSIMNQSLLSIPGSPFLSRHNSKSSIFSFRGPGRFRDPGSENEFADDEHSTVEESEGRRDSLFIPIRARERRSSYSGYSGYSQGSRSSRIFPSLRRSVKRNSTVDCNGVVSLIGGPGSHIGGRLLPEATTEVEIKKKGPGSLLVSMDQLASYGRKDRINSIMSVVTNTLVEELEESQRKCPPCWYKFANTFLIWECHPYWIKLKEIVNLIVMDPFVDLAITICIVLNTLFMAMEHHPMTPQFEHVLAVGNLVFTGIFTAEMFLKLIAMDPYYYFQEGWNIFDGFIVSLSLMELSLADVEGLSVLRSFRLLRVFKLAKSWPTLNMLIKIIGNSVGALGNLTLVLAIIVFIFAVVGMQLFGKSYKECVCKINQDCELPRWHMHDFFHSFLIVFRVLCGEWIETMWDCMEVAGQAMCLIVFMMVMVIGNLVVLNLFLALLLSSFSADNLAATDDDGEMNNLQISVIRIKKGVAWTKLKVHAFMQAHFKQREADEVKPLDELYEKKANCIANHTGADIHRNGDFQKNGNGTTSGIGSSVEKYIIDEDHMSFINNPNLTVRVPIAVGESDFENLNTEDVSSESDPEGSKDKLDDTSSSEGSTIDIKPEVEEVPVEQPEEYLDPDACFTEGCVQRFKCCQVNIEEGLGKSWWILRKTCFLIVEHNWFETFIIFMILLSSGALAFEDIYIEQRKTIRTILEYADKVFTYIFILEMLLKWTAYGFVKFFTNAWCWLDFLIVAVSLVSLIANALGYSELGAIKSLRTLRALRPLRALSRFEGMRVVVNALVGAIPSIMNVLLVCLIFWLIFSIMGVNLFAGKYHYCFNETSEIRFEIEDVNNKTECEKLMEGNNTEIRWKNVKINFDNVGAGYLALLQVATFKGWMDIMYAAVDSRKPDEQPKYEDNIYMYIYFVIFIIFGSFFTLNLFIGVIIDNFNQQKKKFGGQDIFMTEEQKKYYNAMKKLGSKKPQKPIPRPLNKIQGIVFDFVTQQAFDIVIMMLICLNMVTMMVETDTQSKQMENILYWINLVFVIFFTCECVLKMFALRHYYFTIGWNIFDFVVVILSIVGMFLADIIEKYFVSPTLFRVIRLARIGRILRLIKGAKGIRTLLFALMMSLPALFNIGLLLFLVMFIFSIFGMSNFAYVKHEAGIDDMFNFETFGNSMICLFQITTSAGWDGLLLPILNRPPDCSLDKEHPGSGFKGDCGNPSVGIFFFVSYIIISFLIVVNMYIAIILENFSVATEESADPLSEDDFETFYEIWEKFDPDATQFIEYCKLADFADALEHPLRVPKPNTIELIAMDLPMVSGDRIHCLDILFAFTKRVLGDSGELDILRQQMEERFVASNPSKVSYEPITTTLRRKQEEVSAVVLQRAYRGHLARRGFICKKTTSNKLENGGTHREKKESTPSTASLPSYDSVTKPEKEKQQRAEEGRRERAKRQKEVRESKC
Chain of NMDA NR1/NR2B receptor (Q13224 27-1484, other chains not shown): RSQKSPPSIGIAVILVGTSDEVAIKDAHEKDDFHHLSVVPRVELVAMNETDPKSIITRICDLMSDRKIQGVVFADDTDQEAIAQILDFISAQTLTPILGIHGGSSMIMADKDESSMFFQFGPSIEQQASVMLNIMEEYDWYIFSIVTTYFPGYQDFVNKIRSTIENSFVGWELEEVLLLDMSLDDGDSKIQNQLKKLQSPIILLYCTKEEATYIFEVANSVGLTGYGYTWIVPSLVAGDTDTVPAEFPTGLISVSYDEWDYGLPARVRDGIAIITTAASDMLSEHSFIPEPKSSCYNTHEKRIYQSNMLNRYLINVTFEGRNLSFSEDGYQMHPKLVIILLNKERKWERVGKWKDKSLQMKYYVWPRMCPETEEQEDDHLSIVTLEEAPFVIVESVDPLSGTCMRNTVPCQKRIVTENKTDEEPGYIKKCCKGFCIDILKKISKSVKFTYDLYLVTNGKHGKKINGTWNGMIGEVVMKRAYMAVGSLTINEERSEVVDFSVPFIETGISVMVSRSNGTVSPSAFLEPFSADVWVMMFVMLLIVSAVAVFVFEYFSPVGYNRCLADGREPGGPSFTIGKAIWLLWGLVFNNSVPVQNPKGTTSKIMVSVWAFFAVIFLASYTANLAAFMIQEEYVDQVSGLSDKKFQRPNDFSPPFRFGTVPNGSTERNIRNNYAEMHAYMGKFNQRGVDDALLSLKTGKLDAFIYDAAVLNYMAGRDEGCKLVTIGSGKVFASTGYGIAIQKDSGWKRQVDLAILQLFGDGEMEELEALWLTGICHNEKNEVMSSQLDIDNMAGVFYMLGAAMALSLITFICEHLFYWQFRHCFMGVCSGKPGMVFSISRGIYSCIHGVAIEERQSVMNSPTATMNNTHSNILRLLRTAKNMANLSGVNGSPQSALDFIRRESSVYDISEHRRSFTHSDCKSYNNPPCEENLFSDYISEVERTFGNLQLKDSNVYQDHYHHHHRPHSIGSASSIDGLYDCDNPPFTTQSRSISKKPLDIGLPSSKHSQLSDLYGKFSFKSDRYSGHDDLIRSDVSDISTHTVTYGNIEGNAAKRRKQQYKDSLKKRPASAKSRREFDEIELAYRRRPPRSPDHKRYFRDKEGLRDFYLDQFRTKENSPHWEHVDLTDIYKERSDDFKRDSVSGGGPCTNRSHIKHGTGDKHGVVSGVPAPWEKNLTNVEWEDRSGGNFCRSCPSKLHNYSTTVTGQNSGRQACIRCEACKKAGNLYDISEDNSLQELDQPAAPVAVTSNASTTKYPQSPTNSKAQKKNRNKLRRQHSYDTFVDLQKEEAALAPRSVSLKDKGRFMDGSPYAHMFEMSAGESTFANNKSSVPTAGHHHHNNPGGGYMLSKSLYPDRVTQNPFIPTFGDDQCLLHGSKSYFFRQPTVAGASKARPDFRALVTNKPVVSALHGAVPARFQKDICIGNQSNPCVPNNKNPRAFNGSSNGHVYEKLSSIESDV

| SMILES | IC50 (NMDA NR1/NR2B receptor) [nM] | inhibition at 1 µM (Nav1.6 channel) [%] | inhibition at 5 µM (Nav1.6 channel) [%] | inhibition of the Nav 1.6 channel (Nav1.6 channel; at 5 μM) |
| --- | --- | --- | --- | --- |
| CNC(=O)[C@@H]1CN(Cc2cnc(Oc3ccc(F)cc3C)cn2)CCO1 [Example 8] | 856 | 3 | 1.1 | – |
| CNC(=O)[C@@H]1CN(Cc2cnc(Oc3ccc(C)cc3C)cn2)CCO1 [Example 4] | 1200 | 3.4 | 5 | – |
| CNC(=O)[C@@H]1CN(Cc2cnc(Oc3ccc(F)cc3)cn2)CCO1 [Example 1] | 968 | -9 | 0.5 | – |
| CCNC(=O)[C@@H]1CN(Cc2cnc(Oc3ccccc3Cl)cn2)CCO1 [Example 33] | 807 | -10.5 | -6.6 | – |
| CNC(=O)[C@@H]1CN(Cc2cnc(Oc3ccc(Cl)cc3)cn2)CCO1 [Example 7] | 1000 | -9 | -15 | not showing any significant inhibition |

The next molecules have a lower IC50 (NMDA NR1/NR2B receptor) than those just listed; values first:

| IC50 (NMDA NR1/NR2B receptor) [nM] | inhibition at 1 µM (Nav1.6 channel) [%] | inhibition at 5 µM (Nav1.6 channel) [%] | inhibition of the Nav 1.6 channel (Nav1.6 channel; at 5 μM) | SMILES |
| --- | --- | --- | --- | --- |
| 123 | -4.4 | -4 | – | CNC(=O)[C@@H]1CN(Cc2cnc(Oc3ccc(C)cc3F)cn2)CCO1 [Example 2] |
| 595 | -13.4 | -9.4 | – | CCNC(=O)[C@@H]1CN(Cc2cnc(Oc3ccc(F)cc3F)cn2)CCO1 [Example 30] |
| 524 | -5.8 | -7 | – | CCNC(=O)[C@@H]1CN(Cc2cnc(Oc3ccc(C)cc3F)cn2)CCO1 [Example 31] |
| 222 | -5 | -10 | – | CNC(=O)[C@@H]1CN(Cc2cnc(Oc3ccccc3Cl)cn2)CCO1 [Example 18] |
| 210 | 0 | 4.6 | – | CNC(=O)[C@@H]1CN(Cc2cnc(Oc3ccccc3F)cn2)CCO1 [Example 9] |
| 87 | 5.6 | 0.2 | – | CNC(=O)[C@@H]1CN(Cc2cnc(Oc3ccc(F)cc3F)cn2)CCO1 [Example 6] |
| 110 | -3.9 | 3.7 | – | CNC(=O)[C@@H]1CN(Cc2cnc(Oc3ccc(Cl)cc3F)cn2)CCO1 [Example 5] |
| 690 | 4.6 | 6.8 | – | CNC(=O)[C@@H]1CN(Cc2cnc(Oc3ccc(C)cc3)cn2)CCO1 [Example 3] |
